How the values were obtained:
[1] = molecular target: T1, G9a (Mus musculus, UniProt Q9Z148); test: H3K9me2 / G9a immunofluorescence staining in primary neuronal cultures; type: cell-based; conditions: for induction of H3K9me2 in response to glutamate: primary cortical cultures, glutamate toxicity
T1 construct: UNC0642 pre-treated primary neuronal cultures compared to respective controls; endogenous in cells; host or cells: primary mouse cortical neuronal cultures (C57BL/6J embryos)
T1 sequence (Q9Z148 1-1263): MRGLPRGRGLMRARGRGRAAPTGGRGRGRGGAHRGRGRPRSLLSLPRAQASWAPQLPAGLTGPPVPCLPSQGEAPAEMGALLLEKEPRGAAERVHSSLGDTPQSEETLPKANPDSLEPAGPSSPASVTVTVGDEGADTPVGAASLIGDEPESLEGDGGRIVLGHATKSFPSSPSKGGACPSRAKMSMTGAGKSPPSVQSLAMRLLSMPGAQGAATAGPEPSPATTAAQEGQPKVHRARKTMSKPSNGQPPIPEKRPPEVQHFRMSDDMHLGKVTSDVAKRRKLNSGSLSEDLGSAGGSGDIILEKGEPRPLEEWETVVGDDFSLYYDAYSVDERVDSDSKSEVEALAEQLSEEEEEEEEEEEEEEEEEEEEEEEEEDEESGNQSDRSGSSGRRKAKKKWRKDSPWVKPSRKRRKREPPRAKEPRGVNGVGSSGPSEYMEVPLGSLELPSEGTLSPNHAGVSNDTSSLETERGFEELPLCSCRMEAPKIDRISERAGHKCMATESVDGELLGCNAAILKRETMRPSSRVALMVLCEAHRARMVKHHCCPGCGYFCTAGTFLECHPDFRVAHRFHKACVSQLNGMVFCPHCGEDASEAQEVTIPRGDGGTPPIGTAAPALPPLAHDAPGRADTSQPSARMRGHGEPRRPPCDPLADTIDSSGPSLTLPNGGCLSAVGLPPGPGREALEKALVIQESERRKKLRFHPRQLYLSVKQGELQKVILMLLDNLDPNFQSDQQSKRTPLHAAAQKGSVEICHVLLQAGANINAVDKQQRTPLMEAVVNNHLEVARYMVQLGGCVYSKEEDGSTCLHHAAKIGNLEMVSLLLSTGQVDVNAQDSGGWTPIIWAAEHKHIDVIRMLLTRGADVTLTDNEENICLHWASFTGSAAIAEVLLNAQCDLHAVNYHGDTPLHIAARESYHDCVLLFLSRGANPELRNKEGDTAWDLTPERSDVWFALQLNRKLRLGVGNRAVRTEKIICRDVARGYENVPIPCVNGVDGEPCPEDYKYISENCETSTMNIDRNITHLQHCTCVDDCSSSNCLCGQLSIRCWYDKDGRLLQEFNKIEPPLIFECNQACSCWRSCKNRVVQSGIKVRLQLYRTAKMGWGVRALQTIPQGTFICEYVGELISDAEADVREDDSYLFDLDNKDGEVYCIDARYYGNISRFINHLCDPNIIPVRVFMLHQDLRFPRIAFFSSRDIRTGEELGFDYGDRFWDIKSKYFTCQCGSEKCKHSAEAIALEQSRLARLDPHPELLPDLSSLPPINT
Procedure: (§1) For primary cortical cultures pregnant C57BL/6J, or G9afl/fl;Snap25-Cre mice were euthanized. To ensure comparability between genotypes, only embryos from heterozygous breeding's were used. Brainstem tissue of each embryo for genotyping was reserved and cortices were isolated, dissociated and cells were plated at a density of 1 × 10^5 cells per 1 cm^2 on poly-D-lysine-coated wells (5 µM Sigma-Aldrich, cat. no. A-003-M). If not stated otherwise, cells were maintained in neurobasal plus medium (supplemented with B27 plus, penicillin, streptomycin and L-glutamine; Gibco, cat. no. A3582901) at 37°C, 5% CO^2 and a relative humidity of 98%, and treated with 1 µM cytarabine (Sigma-Aldrich, cat. no. BP383) at 1 day in vitro (div) to inhibit glial cell proliferation. If no cytarabine was applied cells were maintained in PNBM medium (supplemented with neural cell survival factor, gentamycin and L-glutamine; Lonza). Throughout, cultures after 14-23 div were used for experiments. G9a inhibitor UNC0642 was used in a concentration of 1 µM and cultures were pre-treated 24 hours before further experimental procedures.
Immunocytochemistry was performed as described previously (15). HiPSC-neurons and mouse neurons were cultivated on 12 mm diameter cover slips or on 96-well plates suited for confocal microscopy, fixed with 4% paraformaldehyde (PFA), incubated in 10% normal donkey's serum (NDS) containing 0.25% Triton X-100, and subsequently immunolabeling was performed. Immunostainings were analyzed with a Zeiss LSM 700 confocal microscope.

[2] = system: primary neuronal cultures; test: Cytosolic calcium imaging of glutamate-exposed neuronal cultures; type: cell-based, mouse; conditions: glutamate-exposed neuronal cultures; UNC0642 pre-treated 24 hours; ferrostatin-1 10 min prior to glutamate
Procedure: as §1
Primary neuronal cultures were seeded on Ibidi 60 µ-Dish Quad (cat. No. 80411) plates. Cultures were infected with an AAV7 containing pAAV-Syn-GCamp6f-WPRE-SV40 (86) (Addgene 100837) at 7-10 div with a 20,000-fold multiplicity of infection (MOI). AAV particles were produced according to the standard procedures of the UKE vector facility. Images were acquired with a confocal LSM 700 laser scanning confocal microscope (Zeiss) every 0.48 seconds with a 20× magnification in an imaging chamber maintaining 37 °C and 5% CO2. Infected cultures were imaged in the respective culture medium. Before applying the indicated chemicals, 5-10 min of baseline activity was first recorded. At the end of the recording, 8 µM ionomycin was applied to induce the maximum cellular calcium response that was used for normalization. For data analysis, mean fluorescence values of every cell were measured using Fiji software (NIH) and normalized to the maximal calcium response after ionomycin challenge. For each cell, mean AUC of the calcium response was calculated using a custom R script.

[3] = system: primary cortical cultures; test: RealTime-Glo cell viability assay, glutamate excitotoxicity; type: cell-based, mouse; conditions: 20 µM glutamate-stimulated primary cortical cultures; UNC0642 1 µM pre-treated 24 hours
Procedure: as §1, with “G9a inhibitor UNC0642 was used in a concentration of 1 µM and cultures were pre-treated 24 hours before further experimental procedures.” left out
RealTime-Glo (Promega, cat. no. G9711) MT cell viability substrate and NanoLuc Enzyme was mixed together, added to neuronal cultures and incubated for 5 hours for equilibration of luminescence signal before respective treatments were applied. Luminescence was acquired with a Spark 10M multimode microplate reader (Tecan) at 37°C and 5% CO2 every 30 min over a total time period of 24 hours. […]

Question: For `COC(=O)c1ccc(C2c3[nH]c4ccccc4c3CC(C(=O)OC)N2C(=O)CCl)cc1` (stereo not shown) [RSL3], which “H3K9me2 immunofluorescence after cell death induction” value ([1]; primary cortical neurons, inducer alone vs. control) is on record?
Answer: significant upregulation of H3K9me2

Question: How did the “induction of H3K9me2 in response to glutamate” value [1] turn out when `O=C(O)CN(CCOCCOCCN(CC(=O)O)CC(=O)O)CC(=O)O` [EGTA] was run?
Answer: potently suppressed the induction of H3K9me2

Question: With `COC1=C(OC)C(=O)C(C/C=C(\C)CC/C=C(\C)CC/C=C(\C)CC/C=C(\C)CC/C=C(\C)CC/C=C(\C)CC/C=C(\C)CC/C=C(\C)CC/C=C(\C)CCC=C(C)C)=C(C)C1=O` [coenzyme Q10] as the molecule, how does the “toxic calcium accumulation (glutamate-induced calcium overload)” value (“toxic calcium accumulation” for short) [2] read?
Answer: rescued glutamate-induced calcium overload

Question: With `CCOC(=O)c1ccc(NC2CCCCC2)c(N)c1` [ferrostatin-1] as the molecule, how does the “toxic calcium accumulation” value [2] read?
Answer: rescued glutamate-induced calcium overload

Question: How did the “toxic calcium accumulation” value [2] turn out when `NCCC[C@](N)(C(=O)O)C(F)F` [DFMO, alpha-difluoro-methylornithine] was run?
Answer: rescued glutamate-induced calcium overload

Question: `NC(CCCP(=O)(O)O)C(=O)O` (stereo not shown) [AP5] was tested. Which “induction of H3K9me2 in response to glutamate” value [1] did it give?
Answer: potently suppressed the induction of H3K9me2

Question: And the cell viability [3]?
Answer: rescued cellular survival

— patent EP4268823A1, “COMPOUND FOR TREATING NEUROINFLAMMATION” (Universitätsklinikum Hamburg-Eppendorf, priority 2022, dated 2023)
